The nature of data set [1]: Tmax in human at 10 g, po administered as single dose. The note with it: in vivo. In kind it is ADME, organism-based.
Data set [2] can be described thus: Cmax in human at 10 g, po administered as single dose. In kind it is ADME, organism-based. Set-up: dose 10 g, route oral. The note with it: in vivo.
A short description of data set [3]: Drug metabolism in human urine assessed as compound sulfate conjugate at 3.6 g/day, po measured after 0.5 and 1 hr. The note with it: in vivo. In kind it is ADME, organism-based.
Data set [4] can be described thus: Drug uptake in human serum at 6 g/day, po administered for 3 months. In kind it is ADME, organism-based. The note with it: read-out: Drug uptake.
The subject of data set [5] is Plasma. Description: Drug metabolism in human plasma assessed as compound glucuronide conjugate at 3.6 g/day, po measured after 0.5 and 1 hr. Type of data set: ADME, organism-based.
A short description of data set [6]: Half life in human at 12 g, po administered as single dose. Type of data set: ADME, organism-based. The note with it: in vivo.
Data set [7] is described as follows: Drug uptake in human serum at 8 g/day, po administered for 3 months. In kind it is ADME, organism-based. The note with it: read-out: Drug uptake.
For the next data set, the system named is U138MG. As to the kind of experiment: Inhibition of PI3K in human U138MG cells assessed as decrease in phosphorylated AKT level by western blot analysis. In kind it is cell-based. Background: Immunoblotting shows a protein as a band on a membrane.
Data set [8] can be described thus: Tmax in human at 12 g, po administered as single dose. Type of data set: ADME, organism-based. The note with it: in vivo.
The test system of the next data set is Homo sapiens. Description: Drug metabolism in human assessed as ratio of glucuronide to sulfate at 10 and 12 g, po administered as single dose. Type of data set: ADME, organism-based. The note with it: in vivo.
The nature of data set [9]: Cmax in human at 12 g, po administered as single dose. Type of data set: ADME, organism-based. The note with it: in vivo. Set-up: dose 12 g, route oral.
A short description of data set [10]: Drug uptake in human malignant colorectal tissue at 3.6 g/day, po. In kind it is ADME.
For data set [11], the system named is Plasma. Description: Drug metabolism in human plasma assessed as compound sulfate conjugate at 3.6 g/day, po measured after 0.5 and 1 hr. In kind it is ADME, organism-based.
Data set [12] in a line: Half life in human at 10 g, po administered as single dose. The note with it: in vivo. In kind it is ADME, organism-based.
The nature of data set [13]: Drug excretion in human urine at 3.6 g/day, po. In kind it is ADME, tissue-based.
Data set [14] in a line: Drug uptake in human normal colorectal tissue at 3.6 g/day, po. In kind it is ADME.
Data set [15] concerns Plasma. As to the kind of experiment: Plasma concentration in human at 2 g, po. In kind it is ADME.
Data set [16] in a line: Drug metabolism in human urine assessed as compound glucuronide conjugate at 3.6 g/day, po measured after 0.5 and 1 hr. In kind it is ADME, organism-based. The note with it: in vivo.
A short description of data set [17]: Plasma concentration in human at 3.6 g/day, po measured after 0.5 and 1 hr. Type of data set: ADME, organism-based.
The nature of data set [18]: Drug uptake in human serum at 4 g/day, po administered for 3 months. Type of data set: ADME, organism-based. The note with it: read-out: Drug uptake.

Each structure is given as a SMILES string.

Regarding `COc1cc(/C=C/C(=O)CC(=O)/C=C/c2ccc(O)c(OC)c2)ccc1O` [CURCUMIN], the Tmax in data set [1] and in data set [8] was 3.29 h throughout. The Cmax (usually the maximum level reached in the sampled fluid or tissue) in data set [2] worked out at 2300 ng/mL; in data set [9], 1730 ng/mL. Also, the Drug metabolism turned out to be 19 nmol/L in data set [3], 15.8 nmol/L with Plasma [5], 8.9 nmol/L in the data set with Plasma [11] and 210 nmol/L in data set [16]. Moreover, the concentration at 3 months in data set [4] came out at 630 nM; in [7], 1770 nM; in data set [18], 510 nM. Moreover, the half-life in [6] and in data set [12] was 6.77 h each time. The inhibition (as a rule, the drop in the measured response relative to a control, in per cent) with U138MG came to 80%. In addition, in the data set on Homo sapiens, the Ratio was determined as 1.92. For the same molecule, the Drug uptake in data set [10] turned out to be 7.7 nmol/g; in data set [14], 12.7 nmol/g. For the same molecule, the Drug excretion in data set [13] is 0.1 µmol/L. Besides, in the data set on Plasma [15], the Cp amounted to 10 ng/mL. Moreover, the concentration at 1 h in data set [17] was 11.1 nM.
